Measured values as given in the RepoRT retention time repository (doi:10.1007/s00216-021-03828-0).

Experiments:
Settings in all cases: stereoisomer not certain
[1] = RP, Merck Supelco Ascentis Express C18, 100 × 2.1 mm, 2 µm, 40 °C, 0.2 mL/min, estimated dead time 1.1 min; A: water + 0.1% formic acid, pH 3; B: acetonitrile + 0.1% formic acid, pH 3; gradient (min/%B) 0/5 2/5 17/99.9 20/99.9
[2] = RP, Merck Supelco Ascentis Express C18, 100 × 2.1 mm, 2 µm, 40 °C, 0.25 mL/min, estimated dead time 0.88 min; A: water + 0.1% formic acid, pH 3; B: acetonitrile + 0.1% formic acid, pH 3; gradient (min/%B) 0/5 2/5 17/99.9 20/99.9
[3] = RP, Merck Supelco Ascentis Express C18, 100 × 2.1 mm, 2 µm, 40 °C, 0.4 mL/min, estimated dead time 0.55 min; A: water + 0.1% formic acid, pH 3; B: acetonitrile + 0.1% formic acid, pH 3; gradient (min/%B) 0/5 2/5 17/99.9 20/99.9
[4] = RP, Merck Supelco Ascentis Express C18, 100 × 2.1 mm, 2 µm, 39 °C, 0.3 mL/min, estimated dead time 0.73 min; A: water + 0.1% formic acid, pH 3; B: acetonitrile + 0.1% formic acid, pH 3; gradient (min/%B) 0/5 2/5 17/99.9 20/99.9
[5] = RP, Merck Supelco Ascentis Express C18, 100 × 2.1 mm, 2 µm, 40 °C, 0.2 mL/min, estimated dead time 1.1 min; A: water + 0.1% formic acid, pH 3; B: acetonitrile + 0.1% formic acid, pH 3; gradient (min/%B) 0/5 2/5 17/99.9 20/99.9; remark: listed apart in the source

Row | SMILES | LC retention time [1] [min] | LC retention time [2] [min] | LC retention time [3] [min] | LC retention time [4] [min] | LC retention time [5] [min]
1 | CC(O)c1ccccc1 (centres undefined) [1-PHENYLETHANOL] | 8.6 | 7.9 | 6.7 | 7.38 | 
2 | O=c1cccc(O)[nH]1 [2,6-DIHYDROXYPYRIDINE] | 1.53 | 1.19 | 0.73 | 0.947 | 
3 | Nc1ccccc1O [2-AMINOPHENOL] | 1.34 |  |  |  | 
4 | O=C(O)c1ccc2ccccc2n1 [2-QUINOLINECARBOXYLATE] | 4.63 | 4.05 | 2.93 | 3.6 | 
5 | COc1cc(CCN)ccc1O [3-METHOXYTYRAMINE] | 1.78 | 1.37 | 0.863 | 1.13 | 
6 | CC1C(=O)Nc2ccccc21 (centres undefined) [3-METHYL-2-OXINDOLE] | 7.09 | 6.5 | 5.56 | 6.16 | 
7 | Cc1ccc(O)c(O)c1 [4-METHYLCATECHOL] | 2.48 | 1.97 | 1.24 | 1.62 | 
8 | O=C1CCCCO1 [5-VALEROLACTONE] | 3.96 | 3.24 | 2.06 | 2.73 | 
9 | NCCc1cc(O)c(O)cc1O [6-HYDROXYDOPAMINE] |  |  | 0.893 |  | 
10 | CC(C)CCCC(C)C1CCC2C3=CC=C4CC(O)CCC4(C)C3CCC21C (centres undefined) [7-DEHYDROCHOLESTEROL] | 11.4 | 10.8 | 9.92 | 15.1 | 
11 | CC(CCCC(C)(C)O)C1CCC2C3CC=C4CC(O)CCC4(C)C3CCC12C (centres undefined) [25-HYDROXYCHOLESTEROL] | 13.4 | 18.3 | 17 | 17.8 | 
12 | Nc1ncnc2c1ncn2C1OC(CO)C2OP(=O)(O)OC21 (centres undefined) [ADENOSINE 2',3'-CYCLIC PHOSPHATE] | 1.34 |  |  |  | 1.32
13 | Nc1ncnc2c1ncn2C1OC(CO)C(O)C1O (centres undefined) [ADENOSINE] | 1.33 |  |  |  | 1.35
14 | CCCCC(CC)COC(=O)c1ccccc1C(=O)OCC(CC)CCCC (centres undefined) [BIS(2-ETHYLHEXYL)PHTHALATE] | 19 | 18.3 | 17 | 17.7 | 
15 | Cn1c(=O)c2c(ncn2C)n(C)c1=O [CAFFEINE] | 4.96 | 4.48 | 3.63 | 4.12 | 
16 | Nc1nc2c(ncn2C2OC3COP(=O)(O)OC3C2O)c(=O)[nH]1 (centres undefined) [CYCLIC GMP] | 1.34 |  |  |  | 1.33
17 | CC(C)=CCCC(C)C1CCC2C3CC=C4CC(O)CCC4(C)C3CCC12C (centres undefined) [DESMOSTEROL] | 16.6 | 15.8 | 14.3 | 15.1 | 

Row | SMILES | LC retention time [1] [min] | LC retention time [2] [min] | LC retention time [3] [min] | LC retention time [4] [min] | LC retention time [5] [min]
18 | CC12CCC3c4ccc(O)cc4CCC3C1CCC2O (stereo not drawn) [ESTRADIOL-17ALPHA] | 10.3 | 9.66 | 8.64 | 9.22 | 
19 | Oc1ccc(O)cc1 [HYDROQUINONE] |  |  |  |  | 4.63
20 | CC1(O)CCOC(=O)C1 (centres undefined) [MEVALOLACTONE] | 1.84 | 1.46 | 0.903 |  | 
21 | CNCCc1c[nH]c2ccccc12 [N-METHYLTRYPTAMINE] | 4.88 | 4.33 | 3.32 | 3.89 | 
22 | CCCCCCCCC=CCCCCCCCCCCCCCC(=O)[O-] [NERVONATE] | 18.7 | 18.7 | 17.4 | 18.2 | 
23 | NCCc1ccccc1 [PHENETHYLAMINE] |  | 1.54 | 0.963 |  | 
24 | O=CCc1ccccc1 [PHENYLACETALDEHYDE] |  |  | 1.09 |  | 
25 | NCC(O)c1ccccc1 (centres undefined) [PHENYLETHANOLAMINE] | 1.4 | 1.09 | 0.673 | 0.883 | 
26 | O=C([O-])c1ccccn1 [PICOLINATE] |  |  |  |  | 1.37
27 | Nc1nc2nccnc2c(=O)[nH]1 [PTERIN] | 1.33 |  |  |  | 1.33
28 | c1ccc2ncccc2c1 [QUINOLINE] | 10.2 | 9 | 2.49 |  | 
29 | NCCc1c[nH]c2ccc(O)cc12 [SEROTONIN] | 1.77 | 1.35 | 0.857 | 1.12 | 
30 | CC=CC=CC(=O)[O-] [SORBATE] | 7.02 | 6.4 | 5.28 | 5.93 | 
31 | Cn1cnc2c1c(=O)[nH]c(=O)n2C [THEOBROMINE] | 2.69 | 2.12 | 1.4 | 1.78 | 
32 | O=C/C=C/c1ccccc1 [TRANS-CINNAMALDEHYDE] | 11.7 | 11.1 | 10.1 | 10.7 | 
33 | NCCc1c[nH]c2ccccc12 [TRYPTAMINE] | 4.56 | 3.97 | 2.77 | 3.5 | 
34 | NCCc1ccc(O)cc1 [TYRAMINE] | 1.4 | 1.09 | 0.673 | 0.883 | 

The next lines start with the values.

Row | LC retention time [1] [min] | LC retention time [2] [min] | LC retention time [3] [min] | LC retention time [4] [min] | LC retention time [5] [min] | SMILES
35 | 1.32 |  |  |  |  | Nc1cc(O)cc(C(=O)O)c1 [3-AMINO-5-HYDROXYBENZOATE]
36 | 5.31 | 4.72 | 3.62 | 4.28 |  | O=C(O)c1cccc(O)c1 [3-HYDROXYBENZOATE]
37 | 1.39 |  | 0.663 |  |  | O=C(O)C(O)COP(=O)(O)O (centres undefined) [3-PHOSPHOGLYCERATE]
38 | 1.32 |  |  |  |  | O=C(O)C(O)C(O)C(O)C(O)COP(=O)(O)O (centres undefined) [6-PHOSPHOGLUCONATE]
39 | 9.16 | 8.66 | 7.73 | 8.25 |  | CC12CCC(=O)C=C1CCC1C2C(O)CC2(C)C(C(=O)CO)CCC12 (centres undefined) [CORTICOSTERONE]
40 | 12.2 | 11.6 | 10.5 | 11.1 |  | CC(=O)OCC(=O)C1CCC2C3CCC4=CC(=O)CCC4(C)C3CCC12C (centres undefined) [DEOXYCORTICOSTERONE ACETATE]
41 | 10.2 | 9.59 | 8.46 | 9.1 |  | CCOC(=O)Cc1c[nH]c2ccccc12 [ETHYL 3-INDOLEACETATE]
42 |  |  |  | 1.34 |  | O=C(O)CCCC(=O)O [GLUTARATE]
43 | 7.65 | 7.07 | 6.08 | 6.65 |  | NC(=O)CCCCC1CCSS1 (centres undefined) [LIPOAMIDE]
44 |  |  | 0.693 |  |  | O=C(O)C=CC(=O)O [MALEATE]
45 | 11.2 | 10.5 | 9.27 | 9.96 |  | CCC=CCC1C(=O)CCC1CC(=O)OC (centres undefined) [METHYL JASMONATE]
46 | 1.36 | 1.06 |  | 0.897 | 1.35 | CC(=O)NC(CCC(=O)O)C(=O)O (centres undefined) [N-ACETYLGLUTAMATE]
47 |  |  | 1.07 |  |  | NCC(O)c1ccc(O)c(O)c1 (centres undefined) [NORADRENALINE]
48 |  |  |  |  | 1.41 | O=C(O)CCC(=O)C(=O)O [OXOGLUTARATE]
49 | 1.34 |  |  |  | 1.32 | O=C1CCC(C(=O)O)N1 (centres undefined) [OXOPROLINE]
50 |  |  |  | 4.98 |  | O=C(O)C(=O)Cc1ccccc1 [PHENYLPYRUVATE]
51 | 15.5 | 14.7 | 13.3 | 14.1 |  | CC(=CCC1=C(C)C(=O)c2ccccc2C1=O)CCCC(C)CCCC(C)CCCC(C)C (centres undefined) [PHYLLOQUINONE]
52 | 1.54 | 1.19 | 0.73 | 3.07 |  | O=C(O)c1ccc[nH]1 [PYRROLE-2-CARBOXYLATE]
53 | 1.38 | 1.07 |  | 0.937 | 1.38 | O=C(O)c1cccnc1C(=O)O [QUINOLINATE]
54 | 12.1 | 11.5 | 10.6 | 10.9 |  | CCCCCCCCCCCCCCCC(O)C(N)CO (centres undefined) [SPHINGANINE]
55 | 15.6 | 14.8 | 13.6 | 14 |  | CC(C)=CCCC(C)=CCCC(C)=CCCC=C(C)CCC=C(C)CCC=C(C)C [SQUALENE]
56 |  |  |  | 0.887 |  | O=C(O)C=C(CC(=O)O)C(=O)O [TRANS-ACONITATE]
57 |  |  |  | 2.72 |  | NC(Cc1c[nH]c2ccccc12)C(=O)O (centres undefined) [TRYPTOPHAN]
58 | 1.33 |  |  |  |  | NC(Cc1ccc(O)cc1)C(=O)O (centres undefined) [TYROSINE]
59 | 1.39 | 1.07 |  |  | 1.36 | O=C([O-])c1c[nH]c(=O)[nH]c1=O [URACIL 5-CARBOXYLATE]
